Measurements as given in BigSolDB 2.1.

| solubility (mole fraction) (in ethanol, 283.15 K) | solubility (mole fraction) (in ethanol, 288.15 K) | solubility (mole fraction) (in ethanol, 293.15 K) | solubility (mole fraction) (in ethanol, 298.15 K) | solubility (mole fraction) (in ethanol, 303.15 K) | solubility (mole fraction) (in ethanol, 308.15 K) | solubility (mole fraction) (in ethanol, 313.15 K) | solubility (mole fraction) (in ethanol, 318.15 K) | solubility (mole fraction) (in ethanol, 323.15 K) | solubility (mole fraction) (in water, 283.15 K) | solubility (mole fraction) (in water, 288.15 K) | solubility (mole fraction) (in water, 293.15 K) | solubility (mole fraction) (in water, 298.15 K) | solubility (mole fraction) (in water, 303.15 K) | solubility (mole fraction) (in water, 308.15 K) | solubility (mole fraction) (in water, 313.15 K) | solubility (mole fraction) (in water, 318.15 K) | solubility (mole fraction) (in water, 323.15 K) | Compound |
| --- | --- | --- | --- | --- | --- | --- | --- | --- | --- | --- | --- | --- | --- | --- | --- | --- | --- | --- |
| 2.21e-05 | 2.58e-05 | 3.15e-05 | 3.83e-05 | 4.45e-05 | 5.2e-05 | 6.32e-05 | 7.71e-05 | 9e-05 | 3.32e-07 | 4.51e-07 | 5.84e-07 | 8.17e-07 | 1.15e-06 | 1.58e-06 | 2.1e-06 | 2.72e-06 | 3.9e-06 | O=C1c2cccc(O)c2C(=O)c2c(O)cc(CO)cc21 |
| 8.37e-05 | 9.39e-05 | 0.000112 | 0.000132 | 0.00015 | 0.00017 | 0.000203 | 0.000231 | 0.000268 | 3.2e-08 | 4.6e-08 | 6e-08 | 8.2e-08 | 1e-07 | 1.32e-07 | 1.79e-07 | 2.15e-07 | 2.79e-07 | Cc1cc(O)c2c(c1)C(=O)c1cc(O)cc(O)c1C2=O |
